pIC50: −log10 of the molar value. Where a SMILES comes first, the peptide text is derived from it. [ ]: non-standard residue; d: D form. The star is where a group is joined. Sta = CC(C)C[C@H](N)[C@@H](O)CC(=O)O; Isovaleryl = CC(C)CC(=O)*
molecular target: T1, human plasma renin (Homo sapiens, UniProt P00797); test: In vitro inhibition of human plasma renin (Boger et al., J. Med. Chem. 1985, 28, 1779); assay type: biochemical; details: human plasma renin assay
T1 construct: from tissue; host or cells: human plasma
T1 sequence (P00797 67-406): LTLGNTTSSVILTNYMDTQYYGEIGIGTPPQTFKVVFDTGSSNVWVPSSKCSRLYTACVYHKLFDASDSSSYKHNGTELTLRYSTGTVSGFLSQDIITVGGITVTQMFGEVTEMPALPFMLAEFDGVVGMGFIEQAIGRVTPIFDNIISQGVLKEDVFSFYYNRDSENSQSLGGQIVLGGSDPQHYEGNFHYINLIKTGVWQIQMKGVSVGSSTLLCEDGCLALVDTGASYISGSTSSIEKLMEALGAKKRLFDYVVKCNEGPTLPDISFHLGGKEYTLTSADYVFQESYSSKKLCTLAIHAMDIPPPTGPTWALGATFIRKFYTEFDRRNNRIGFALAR
Procedure: In vitro inhibition of human plasma renin was measured as described by Boger, et al., J. Med. Chem. (1985) 28, 1779.
They were analyzed for purity by HPLC (30 minute gradient, 5% CH3 CN--H2 O to 95% CH3 CN--H2 O buffered with 0.1% H3 PO4; C18 reverse phase column), and were analyzed for composition by C, H, and N combustion analysis. IC50 values were measured in vitro using the human plasma renin assay, as described by Boger et al. J. Med. Chem. (1985) 28, 1779.
They were analyzed for purity by HPLC under conditions given above, and were analyzed for composition by C, H, and N combustion analysis. IC50 values were measured as described above.

Compared with “Boc-Phe-His-(ACHP)-5(S)-Acetoxymethyl)-1-Methyl-2-Pyrrolidinone [Example 3J]”, “Boc-Phe-His-(ACHP)-5(S)-Methoxymethyl-1-Methyl-2-Pyrrolidinone [Example 3D]” is 0.35 log units higher in pIC50: 6.80 for the first, 7.15 for the second.

“Boc-Phe-His-(ACHP)-5(R)-Ethyl-1-Methyl-2-Pyrrolidinone [Example 3K]” and “Boc-Phe-His-(ACHP)-1-Methyl-5(S)-Vinyl-2-Pyrrolidinone [Example 3F]” are within 0.2 log units of each other in pIC50: 8.07 for the first, 8.10 for the second.

Compared with “Boc-Phe-His-(ACHP)-5(S)-Ethyl-1-Methyl-2-Pyrrolidinone [Example 3L]”, “Boc-Phe-His-(ACHP)-5(S)-Hydroxymethyl)-1-Methyl-2-Pyrrolidinone [Example 3I]” is 0.43 log units lower in pIC50: 8.28 for the first, 7.85 for the second. The first is the more potent here.

“Boc-Phe-His-(ACHP)-1-Cyclohexyl-2-Pyrrolidinone [Example 3B]” and “Boc-Phe-His-(ACHP)-1-Methyl-2-Pyrrolidinone [Example 3A]” are the same in pIC50: 8.00 for the first, 8.00 for the second.

Compared with “Boc-Phe-His-(ACHP)-1-Methyl-5(R)-Vinyl-2-Pyrrolidinone [Example 3G]”, “Boc-Phe-His-(ACHP)-5(S)-Benzyloxymethyl-1-Methyl-2-Pyrrolidinone [Example 3C]” is 3.24 log units lower in pIC50: 8.60 for the first, 5.36 for the second. The first is the more potent here.

Work on “Boc-Phe-His-(ACHP)-1-(2-Benzyloxyethyl-2-Pyrrolidinone [Example 3E]” yielded a pIC50 of 7.62.

system: hog renin; test: not given; details: after the injection of hog renin into nephrectomized rats; Gross et al., Science 1972; cited from earlier work

For `CC(C)CC(=O)N[C@H](C(=O)N[C@H](C(=O)N[C@@H](CC(C)C)[C@@H](O)CC(=O)N[C@@H](C)C(=O)N[C@@H](CC(C)C)[C@@H](O)CC(=O)O)C(C)C)C(C)C` [pepstatin] (Isovaleryl-VV[Sta]A[Sta]-OH), the “blood pressure in vivo” value is given as “reduces blood pressure in vivo”.
